Patent US20260306526A1, “COMBINATION THERAPY FOR BACTERIAL INFECTIONS COMPRISING ZINC-CHELATOR, BETA-LACTAM ANTIBIOTIC AND SERINE BETA-LACTAMASE INHIBITOR” (priority 2023, published 2026)

Experiments:
MBLs = conditions: cited from earlier work
[1] = test system: K. pneumoniae K66-45 (NDM-1); test: MIC determination of meropenem with zinc chelator at varying zinc concentrations in the medium (Example 31); format: cell-based, Klebsiella pneumoniae
Experimental: An experiment was conducted to determine the Minimal Inhibitory Concentration (MIC) of meropenem (MEM) in combination with the zinc chelator according to Example 26 of WO 2018/033719 at varying concentrations of zinc in the medium. The medium was a Mueller Hinton broth from Thermo Fischer. The zinc content was measured as 5.6 μM using ICP-MS. The concentration of zinc in the plasma of healthy animals has been determined to be close to this value. In infectious tissue, the zinc concentration is below the limit of detection (see, for example Bilinskaya et al., Am. Soc. For Microbiology (2020), 58, pages 1-8). Zinc sulfate was then added to this broth to obtain three further concentrations: 15.6 μM, 25.6 μM and 35.6 μM of zinc, keeping all other parameters constant.
As a model bacterial strain for this experiment, the MIC of MEM vs. K. pneumoniae K66-45 (NDM-1) was then determined in broth containing the four concentrations of zinc following the protocol given in Example 1. The EUCAST MIC value for MEM alone (EUCAST: standardization organization for MIC values of antibiotics) is 4-8 μM, meaning that if a bacterial strain is inhibited at lower concentrations than the MIC value, the bacterial strain is sensitive(S) to MEM. Correspondingly, if the bacterial strain is not inhibited at MIC or lower, the strain is resistant (R). If the inhibition is within the MIC range 4-8 μM, the resistance is intermediate (I).

[2] = test system: clinically isolated gram-negative bacteria with MBL as a resistance mechanism; conditions: cited from earlier work
NDM = conditions: mouse models; relatively high doses required to reverse carbapenem resistance; cited from earlier work
MBL-producers = conditions: cited from earlier work
MBL class IMP = conditions: cited from earlier work

## NC(=O)[C@@H]1CC[C@@H]2CN1C(=O)N2OS(=O)(=O)O [Avibactam, avibactam]
MBLs
  inhibitory activity against MBLs: none of these β-lactamase inhibitors possess inhibitory activity against MBLs

## CC1=C[C@@H]2CN(C(=O)N2OS(=O)(=O)O)[C@@H]1C(N)=O [ETX2514]
MBLs
  inhibitory activity against MBLs: none of these β-lactamase inhibitors possess inhibitory activity against MBLs

## C[C@@H](O)[C@H]1C(=O)N2C(C(=O)O)=C(S[C@@H]3CN[C@H](C(=O)N(C)C)C3)[C@H](C)[C@H]12 [Meropenem, meropenem, reference compound]
[1]; zinc concentration 5.6 μM
  EUCAST MIC class for MEM alone: S (if a bacterial strain is inhibited at lower concentrations than the MIC value, the bacterial strain is sensitive(S) to MEM)
[1]; zinc concentration 35.6 μM
  EUCAST MIC class for MEM alone: R (if the bacterial strain is not inhibited at MIC or lower, the strain is resistant (R))
[2]; meropenem used alone, many clinical isolates with MBL
  sensitivity to meropenem alone: resistant to the antibiotic
[2]; same strains, sensitivity reinstated
  effect of MEM in combination with the compound of Example 26 of WO 2018/033719: inhibitory effect

## N[C@H](CN[C@H](CN[C@@H](CC(=O)O)C(=O)O)C(=O)O)C(=O)O [aspergillomarasmine A]
NDM
  in vivo activity: in vivo activity in mouse models

## NCCN[C@H]1CC[C@H](CC(=O)N[C@H]2Cc3cccc(C(=O)O)c3OB2O)CC1 [taniborbactam]
MBL-producers
  activity in combination with cefepime: potent activity
MBL class IMP
  effect in combination with cefepime: no effect

## O=C(O)C[C@@H]1CC[C@H](NC(=O)Cc2cccs2)B(O)O1 [vaborbactam]
MBLs
  inhibitory activity against MBLs: none of these β-lactamase inhibitors possess inhibitory activity against MBLs
